Measured values as given in patent publication US20250179013A1, “INHIBITORS OF RNA HELICASE DHX9 AND USES THEREOF” (ACCENT THERAPEUTICS, INC., priority 2022, published 2025).
Like-named read-outs stand apart in the source and are kept apart here.

How the values were obtained:
[1] = tested on: DHX9 (circBRIP1 mRNA in HCT116 cells); assay: DHX9 circBRIP1 Cellular Target Engagement SYBR Green Assay; assay type: cell-based; settings: 72 hours
[2] = biological target: T1, Human recombinant DHX9 protein (Homo sapiens, UniProt Q08211); assay: DHX9 ATPase assay (ADP-Glo biochemical assay); settings: for DHX9 Biochemical Max Inhibition: maximum inhibition in ATPase assay, 10 μM Aurintricarboxylic acid = 100%
T1 construct: purchased Viva

[3] = tested on: LS411N cells; assay: DHX9 Cellular Proliferation Assay (CellTiter-Glo), LS411N; assay type: cell-based; settings: Homo sapiens, LS-411N, 120 hours, read-out: LS411N (CRC-MSI-H) Antiproliferative IC50
[4] = tested on: DHX9 (circBRIP1 mRNA in HCT116 cells); assay: DHX9 circBRIP1 Cellular Target Engagement TaqMan Multiplex Assay; assay type: cell-based; settings: Homo sapiens, HCT-116, TaqMan Multiplex Assay (footnote *), circBRIP1 qPCR, 72 hours
[5] = tested on: NCI-H747 cells; assay: DHX9 Cellular Proliferation Assay (CellTiter-Glo), NCI-H747; assay type: cell-based; settings: Homo sapiens, 120 hours, read-out: H747 (CRC-MSS) Antiproliferative IC50
[6] = Homo sapiens, HCT-116, circBRIP1 qPCR
[7] = read-out: DHX9 Biochemical Inflection Point

T1 sequence (Q08211 whole entry): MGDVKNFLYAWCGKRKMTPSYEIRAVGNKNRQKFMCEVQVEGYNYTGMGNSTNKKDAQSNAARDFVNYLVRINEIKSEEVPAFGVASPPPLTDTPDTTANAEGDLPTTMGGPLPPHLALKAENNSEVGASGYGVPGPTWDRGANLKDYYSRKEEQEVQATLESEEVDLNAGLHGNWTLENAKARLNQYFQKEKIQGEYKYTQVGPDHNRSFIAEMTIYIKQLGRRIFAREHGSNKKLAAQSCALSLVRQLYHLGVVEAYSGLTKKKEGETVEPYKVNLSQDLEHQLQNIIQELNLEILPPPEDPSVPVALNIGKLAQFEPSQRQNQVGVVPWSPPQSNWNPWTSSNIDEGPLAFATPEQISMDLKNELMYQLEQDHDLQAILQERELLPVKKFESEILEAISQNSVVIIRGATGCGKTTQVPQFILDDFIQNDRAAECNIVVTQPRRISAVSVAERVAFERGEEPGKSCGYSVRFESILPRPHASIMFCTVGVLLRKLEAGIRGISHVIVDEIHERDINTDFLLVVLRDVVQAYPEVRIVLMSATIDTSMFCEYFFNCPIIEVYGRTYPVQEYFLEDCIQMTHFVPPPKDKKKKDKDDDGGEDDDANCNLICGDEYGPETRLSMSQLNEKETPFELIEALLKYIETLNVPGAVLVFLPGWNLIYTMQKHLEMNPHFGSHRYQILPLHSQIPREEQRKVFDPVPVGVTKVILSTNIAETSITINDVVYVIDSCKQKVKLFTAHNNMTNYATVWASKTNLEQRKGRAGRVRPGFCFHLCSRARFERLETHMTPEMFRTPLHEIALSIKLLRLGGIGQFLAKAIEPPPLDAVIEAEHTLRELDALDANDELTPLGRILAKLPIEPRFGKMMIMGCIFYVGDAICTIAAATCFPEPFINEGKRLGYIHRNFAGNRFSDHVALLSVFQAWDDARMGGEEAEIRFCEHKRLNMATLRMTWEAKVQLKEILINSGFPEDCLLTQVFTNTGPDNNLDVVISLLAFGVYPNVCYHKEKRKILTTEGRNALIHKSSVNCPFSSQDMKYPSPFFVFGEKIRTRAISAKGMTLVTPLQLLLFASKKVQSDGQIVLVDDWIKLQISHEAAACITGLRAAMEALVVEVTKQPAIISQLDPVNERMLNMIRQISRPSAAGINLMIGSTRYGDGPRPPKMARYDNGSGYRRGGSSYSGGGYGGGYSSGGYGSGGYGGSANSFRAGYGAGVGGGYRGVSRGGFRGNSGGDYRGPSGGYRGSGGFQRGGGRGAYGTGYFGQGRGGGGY

| SMILES | EC50 [1, 6] [nM] | DHX9 Biochemical Max Inhibition [2] [%] | IC50 [2, 7] [nM] | further results |
| --- | --- | --- | --- | --- |
| CS(=O)(=O)Nc1cccc(NC(=O)c2cc(-c3ccccn3)n[nH]2)c1 [Example 81] | > 30000 | 68.3 | 1070 | – |
| CS(=O)(=O)Nc1cc(C=O)cc(NC(=O)c2cc(-c3ccccc3)cs2)c1 [Example 159, N-(3-formyl-5-(methylsulfonamido)phenyl)-4-phenylthiophene-2-carboxamide] | > 10000 | 50.7 | 690 | – |
| CCOc1ncc(-c2csc(C(=O)Nc3cccc(NS(C)(=O)=O)c3)c2)cn1 [Example 63] | 18800 | 66.9 | 121 | – |
| CCS(=O)(=O)Nc1cccc(NC(=O)c2cc(-c3ccccn3)cs2)c1 [Example 97] | 4320 | 70 | 24.7 | – |
| CC(=O)Nc1ccccc1-c1csc(C(=O)Nc2cccc(NS(C)(=O)=O)c2)c1 [Example 93, 4-(2-acetamidophenyl)-N-(3-(methylsulfonamido)phenyl)thiophene-2-carboxamide] | 11500 | 74 | 39.9 | – |
| CS(=O)(=O)Nc1cccc(NC(=O)c2cc(-c3cccs3)ccn2)c1 [Example 44] | > 30000 | 47.2 | 6510 | – |
| CS(=O)(=O)Nc1cccc(NC(=O)c2cc(-c3ccc(F)cc3)cs2)c1 [Example 53] | 22700 | 70.4 | 188 | – |
| CS(=O)(=O)Nc1cccc(NC(=O)c2cc(-c3ccc(N4CCNCC4)cn3)cs2)c1 [Example 91, N-(3-(methylsulfonamido)phenyl)-4-(5-(piperazin-1-yl)pyridin-2-yl)thiophene-2-carboxamide] | 7630 | 74.6 | 7.2 | – |
| CS(=N)(=O)Nc1cccc(NC(=O)c2cc(-c3ccccc3)cs2)c1 (centres unmarked) [Example 157, N-(3-(methylsulfonoamidimidamido)phenyl)-4-phenylthiophene-2-carboxamide] | – | 68.6 | – | EC50 ([1]; circBRIP1 qPCR): > 30000 nM; IC50 ([2]; inflection point (IP) of four-parameter fit, reported instead of IC50, ATPase, dsRNA substrate, 1 h room temperature, read-out: DHX9 Biochemical Inflection Point): 205 nM |
| Cc1ccc(O)cc1-c1csc(C(=O)Nc2cccc(NS(C)(=O)=O)c2)c1 [Example 75] | 8280 | 70.1 | 82.1 | – |
| CC(C)(C)OC(=O)Nc1cccc(-c2csc(C(=O)Nc3cccc(NS(C)(=O)=O)c3)c2)c1 [Example 72] | > 30000 | 64.4 | 494 | – |
| CS(=O)(=O)Nc1cccc(NC(=O)c2cc(C(=O)Nc3ccccc3)cs2)c1 [Example 102, N2-(3-(methylsulfonamido)phenyl)-N4-phenylthiophene-2,4-dicarboxamide] | 18900 | 72.5 | – | IC50 [2]: 159 nM |
| CS(=O)(=O)Nc1cccc(NC(=O)c2cc(-c3cccc(O)c3)cs2)c1 [Example 73] | 6150 | 63.7 | 109 | – |
| CS(=O)(=O)Nc1cccc(NC(=O)c2cc(-c3cc(C(N)=O)ccn3)cs2)c1 [Example 92] | > 30000 | 75.5 | 55.4 | – |
| Cc1cccnc1-c1csc(C(=O)Nc2cccc(NS(C)(=O)=O)c2)c1 [Example 83] | 917 | 73.1 | 17.3 | – |
| Cn1nc(C(=O)Nc2cccc(NS(C)(=O)=O)c2)cc1-c1ccc(O)cc1 [Example 79] | > 30000 | 71.2 | 467 | – |
| CS(=O)(=O)Nc1cccc(NC(=O)c2cc(-c3cncnc3)cs2)c1 [Example 62] | > 30000 | 60.8 | 271 | – |
| Cc1ccc(-c2csc(C(=O)Nc3cccc(NS(C)(=O)=O)c3)c2)cn1 [Example 65] | 8560 | 66.9 | 41.8 | – |
| CS(=O)(=O)Nc1cccc(NC(=O)c2cc(-c3ccccc3OCc3ccccc3)cs2)c1 [Example 77] | 2040 | 72.3 | 89.4 | – |
| CS(=O)(=O)Nc1cccc(NC(=O)c2cc(-c3ccccc3N)cs2)c1 [Example 88] | 10500 | 68.2 | 65.4 | – |
| CS(=O)(=O)Nc1cccc(NC(=O)c2cc(-c3cccc(N)c3)cs2)c1 [Example 58] | 3120 | 69.2 | 55.8 | – |
| CS(=O)(=O)Nc1cccc(NC(=O)c2cc(-c3ncccn3)cs2)c1 [Example 84] | 4840 | 71.4 | 12.5 | – |
| CS(=O)(=O)Nc1cccc(NC(=O)c2nc(-c3ccccn3)c[nH]2)c1 [Example 90] | > 30000 | 61.2 | 19000 | – |
| Cc1c(O)cccc1-c1csc(C(=O)Nc2cccc(NS(C)(=O)=O)c2)c1 [Example 74, 4-(3-hydroxy-2-methylphenyl)-N-(3-(methylsulfonamido)phenyl)thiophene-2-carboxamide] | ≥ 30000 | 71.4 | 80.6 | – |
| CS(=O)(=O)Nc1cccc(NC(=O)c2cnn(-c3ccccn3)c2)c1 [Example 41] | 27400 | 61.2 | 285 | – |
| COc1cccc(-c2csc(C(=O)Nc3cccc(NS(C)(=O)=O)c3)c2)c1 [Example 56] | 21400 | 68.2 | 148 | – |
| Cn1cc(C(=O)Nc2cccc(NS(C)(=O)=O)c2)cc1-c1ccc(N2CC(F)(F)C2)cn1 [Example 160, 5-[5-(3,3-difluoroazetidin-1-yl)pyridin-2-yl]-N-(3-methanesulfonamidophenyl)-1-methylpyrrole-3-carboxamide] | – | 89.6 | 28.4 | IC50 [3]: 9450 nM; EC50 [4]: 1410 nM; IC50 [5]: > 10000 nM |
